In patent US20250009835A1, “PHARMACEUTICAL COMPOSITION AND HEALTH FUNCTIONAL FOOD FOR PREVENTION OR TREATMENT OF CANCER COMPRISING MIXED HERBAL EXTRACT” (H&O BIOSIS CO., LTD., priority 2021, published 2025):

Tests used:
[1] = tested on: SNU475 cell line; settings: known property of the SNU475 cell line; cited from earlier work
[2] = tested on: SNU475 cell line; assay: Cell viability in anticancer drug-resistant cancer cells; type: cell-based; settings: 0, 1, and 3 µM range, FIG. 4A
Procedure: (§1) For cell viability measurements on cancer cell lines, three hepatocellular carcinoma cell lines (Huh-7, Hep3B, and SNU475) were seeded in a 384-well plate at a density of 2,000 cells/40 μl/well. After incubation for 16 hours, the extract of the present invention was treated at a concentration of 10 μl/well, followed by incubation at 37° C. for 48 hours. After 48 hours, 40 μl/well of the medium was removed and 4% paraformaldehyde was added to be a 30 μl/well, followed by incubation at room temperature for 10 minutes. Thereafter, after washing with DPBS, nuclear staining was performed with Hoechst33342 at a concentration of […] at room temperature for 10 minutes. After washing twice with DPBS, images were acquired with Operetta. The cell viability was identified by counting the number of cells using Operetta software.

[3] = tested on: Huh7 and Hep3B cell lines; assay: Cell viability in hepatocellular carcinoma cell lines without drug resistance; type: cell-based; settings: 0, 1, and 3 µM range, FIG. 4A
Procedure: as §1

SMILES: CNC(=O)c1cc(Oc2ccc(NC(=O)Nc3ccc(Cl)c(C(F)(F)F)c3)c(F)c2)ccn1 [regorafenib]
- resistance of SNU475 to regorafenib [1]: strong resistance

SMILES: CNC(=O)c1cc(Oc2ccc(NC(=O)Nc3ccc(Cl)c(C(F)(F)F)c3)cc2)ccn1 [sorafenib]
- anticancer effect of sorafenib in SNU475 [2]: exhibited resistance
- anticancer effect of sorafenib in Huh7 and Hep3B [3]: anticancer effect was exhibited
